Results reported in publication PMC7460390, “Secondary Metabolites with Nitric Oxide Inhibition from Marine-Derived Fungus Alternaria sp. 5102” (Marine Drugs, 2020).
Where two headings read alike, the source gives them in different places.

Assays:
[1] = Cell viability, MTT assay, with LPS treatment; type: cell-based, murine; conditions: mouse, RAW 264.7 cells, MTT, LPS 1 µg/mL, 24 h, mean ± SD, n = 3
Procedure: (§1) In this work, all isolated compounds (1–22) were evaluated for their inhibition of nitric oxide (NO) production in RAW264.7 cells activated by lipopolysaccharide (LPS) using the Griess assay with indomethacin as a positive control (Table 3). […] To investigate whether the inhibitory activities of the active compounds were due to their cytotoxicity, the effects of the tested compounds on cell proliferation/viability were evaluated using the MTT method. […] Therefore, further studies are required to clarify the underlying mechanism of the active compounds.
(§2) Cell viability was measured using the conventional MTT assay. RAW 264.7 cells were seeded in 96-well plates at a density of 1.5 × 10^5 cells/mL. After 12 h, the cells were treated with LPS (1 µg/mL) and samples, followed by additional incubation for 24 h at 37 °C. MTT stock solution (2 mg/mL) was added to wells for a total reaction volume of 110 µL. After 4 h incubation, the supernatants were aspirated. The formazan crystals in each well were dissolved in 50 µL of DMSO, and the absorbance was measured using a microplate reader (Multiskan GO, Thermo Scientific, Waltham, MA, USA) at the wavelength of 490 nm. Relative cell viability was evaluated based on the quantity of MTT converted to the insoluble formazan salt. The optical density of formazan generated in the control cells represented 100% viability. The data were expressed as mean percentages of the viable cells compared to the respective control.

[2] = test system: NO production in RAW264.7 cells activated by lipopolysaccharide; assay: Inhibition of NO production in LPS-activated RAW264.7 cells (Griess assay); type: cell-based, murine; conditions: for IC50: read-out: IC50, inhibition of LPS-induced NO production; for SI, selectivity index, calculated by CC50/IC50: CC50 (MTT) / IC50 (NO production)
Procedure: After pre-incubation of RAW 264.7 cells (1.5 × 10^5 cells/mL) with LPS (1 µg/mL) and samples at 37 °C for 24 h, the quantity of nitrite accumulated in the culture medium was measured as an indicator of NO production. Briefly, 50 µL of cell culture medium were mixed with 100 µL Griess reagent, and incubated at room temperature for 10 min. The absorbance was determined at 540 nm wavelength with a microplate reader (Multiskan GO, Thermo Scientific, Waltham, MA, USA).

C. albicans = test system: C. albicans; design: method as in PMID 22377027; conditions: against C. albicans; cited from earlier work
RAW 264.7 cells = assay: Cell viability, MTT assay, with LPS treatment; type: cell-based, murine; conditions: up to 100 μM, with LPS treatment for 24 h
Procedure: as §1, §2

[3] = test system: RTX-induced mouse ear edema; design: method as in PMID 10840958; conditions: 50 µg per ear, topical; cited from earlier work
[4] = test system: indoleamine 2,3-dioxygenase 1 (IDO1); design: method as in doi:10.1039/C9QO00775J; conditions: cited from earlier work
[5] = test system: iNOS and COX-2 proteins and mRNA expressions in RAW 264.7 macrophages; design: method as in not given; conditions: ref not given; cited from earlier work
[6] = test system: spontaneous synchronous Ca^2+ oscillations; design: method as in PMID 32237750; conditions: cited from earlier work
[7] = test system: NO production in lipopolysaccharide activated RAW264.7 cells; design: method as in PMID 29197643; conditions: LPS-activated RAW264.7 cells, in vitro; read-out: IC50, inhibition of NO production; cited from earlier work
[8] = RAW 264.7 cells activated with LPS
[9] = Mus musculus, RAW264.7, 24 h, RAW 264.7 cells, LPS 1 µg/mL, 24 h, Griess assay, mean ± SD, n = 3
[10] = RAW 264.7 cells, LPS 1 µg/mL, 24 h, Griess assay, mean ± SD, n = 3

| Compound | CC50 at 24 h [1, 8] [µM] | IC50 [2, 9] [µM] | SI, selectivity index, calculated by CC50/IC50 ([2]; RAW 264.7 cells) | also measured |
| --- | --- | --- | --- | --- |
| COc1cc(O)c(C(=O)O)c(-c2cc(O)c(O)cc2C)c1 [Compound 20, altenusin] | – | – | – | CC50 at 24 h [1]: > 100 µM; IC50 ([2]; Mus musculus, RAW264.7, 24 h): 25.4 ± 3.03 µM |
| COc1cc([C@H](Cc2ccccc2)NC(C)=O)oc(=O)c1 [pyrophen] | – | – | – | Anti-fungal activity (C. albicans): displayed anti-fungal activity |
| COC(=O)C[C@@H]1OC(=O)c2c(O)cccc21 [Compound 5, isobenzofuranone A] | > 100 | 41.1 ± 4.78 | – | – |
| COc1cc(O)c2c(c1)-c1cc(O)c(O)cc1COC2=O [Compound 17, alteryulactone] | – | – | – | Cytotoxicity (cell proliferation/viability, MTT) (RAW 264.7 cells): did not show any significant cytotoxicity; CC50 at 24 h [1]: > 100 µM; IC50 ([2]; Mus musculus, RAW264.7, 24 h): 16.2 ± 2.62 µM |
| COc1cc(O)c2c(=O)oc3c(c2c1)[C@@H](C)CC3=O [Compound 8, dihydroaltenuenes A] | > 100 | > 50 | – | – |
| CC1(C)CCCC2(C)C(=O)C=C(CO)C3CC312 (centres unmarked) [Compound 4, alternaterpenoid B] | > 100 | ~50 | – | – |
| CCC(C)[C@]1(O)NC(=O)[C@@H](C)n2c1nc1c(c2=O)C=C(OC)C=CO1 (some centres unmarked) [Oxepinamide A] | – | – | – | Inhibition rate, ear edema [3]: 82% |
| COC1=CC(=O)c2c(O)c3c(c4c2[C@]12CC(=O)C[C@H]2[C@@]1(C[C@H](O)[C@H](O)CO1)O4)C[C@](C)(O)[C@H](O)C3 [anthrininone A] | – | – | – | Inhibition activity against IDO1 [4]: significant inhibition activity |
| Cc1cc(O)cc2oc(=O)c3c(O)cc(O)cc3c12 [Compound 12, alternariol] | – | – | 3.0 | CC50 at 24 h [1]: 50.4 ± 2.1 µM; IC50 ([2]; Mus musculus, RAW264.7, 24 h): 16.6 ± 1.6 µM |
| Cc1cc(=O)c2c(C)cc(O)cc2o1 [Compound 21, 2,5-dimethyl-7-hydroxychromone] | 17.3 ± 2.2 | 14.9 ± 1.92 | 1.2 | – |
| CC1=C[C@@H](O)[C@H]2C[C@@H](C)C[C@@H](C)[C@@H]2[C@H]1/C=C/C=C/C(=O)O [tanzawaic acid Q] | – | – | – | Effect on LPS-induced iNOS and COX-2 proteins and mRNA expressions [5]: inhibited |
| C[C@H](O)[C@@H](C)OC(=O)C[C@@H]1OC(=O)c2c(O)cccc21 [Compound 2, alternabenzofuran B] | > 100 | 18.7 ± 2.35 | – | Cytotoxicity (cell proliferation/viability, MTT) (RAW 264.7 cells): did not show any significant cytotoxicity |
| COc1cc(O)c2c(=O)oc3c(O)c(O)cc(C)c3c2c1 [Compound 14, 3’-hydroxyalternariol 5-O-methyl ether] | – | < 10 | – | Cytotoxicity (cell proliferation/viability, MTT) (RAW 264.7 cells): did not show any significant cytotoxicity; CC50 [1]: > 100 µM; IC50 [2, 10]: 5.9 ± 0.48 µM |
| COc1cc(O)c2c(=O)oc3c(c2c1)[C@@H](C)C[C@@H]3O [Compound 9, phialophriol] | > 100 | – | – | Cytotoxicity (cell proliferation/viability, MTT) (RAW 264.7 cells): did not show any significant cytotoxicity |
| COc1cc(O)c2c(=O)oc3cc(O)cc(C)c3c2c1 [Compound 11, alternariol-9-O-methyl ether] | – | – | – | Cytotoxicity (cell proliferation/viability, MTT) (RAW 264.7 cells): did not show any significant cytotoxicity; CC50 at 24 h [1]: > 100 µM; IC50 ([2]; Mus musculus, RAW264.7, 24 h): 39 ± 1.92 µM |
| C[C@H]1CC(=O)OC[C@H]1O [Compound 22, walterolactone C] | 46.4 ± 1.7 | 14.9 ± 1.92 | 3.1 | – |
| COC(=O)C1Cc2cccc(O)c2C(=O)O1 (centres unmarked) [Compound 18, tenuissimasatin] | 28.3 ± 2.5 | 24.5 ± 1.06 | 1.2 | – |
| C=C1CC[C@H]2C(C)(C)[C@@H](O)CC[C@]2(C)[C@H]1CC(=O)[C@]1(O)C=C(CSC[C@H](O)C(=O)OC)C(=O)C1 [alternarin A] | – | – | – | Inhibition of spontaneous synchronous Ca2+ oscillations [6]: effective inhibition |
| CC(O)C(C)OC(=O)CC1OC(=O)c2c(O)cccc21 (centres unmarked) [Compound 1, alternabenzofuran A] | > 100 | > 50 | – | – |
| COc1cc(O)c2c(c1)C1=CC(=O)C(O)=CC1(C)OC2=O (centres unmarked) [Compound 16, dehydroaltenusin] | – | 1.3 to 41.1 | – | – |
| COc1cc(O)c2c(=O)oc3cc(CO)cc(O)c3c2c1 [Compound 15, alternariol-1’-hydroxy-9-methyl ether] | – | – | 1.9 | CC50 at 24 h [1]: 48.7 ± 1.8 µM; IC50 ([2]; Mus musculus, RAW264.7, 24 h): 26.3 ± 3.99 µM |
| COc1cc(O)c2c(c1)C1(OC2=O)C(C)=CC(=O)C1O (racemic) [Compound 10, ±talaroflavone] | 27.2 ± 1.6 | 23.9 ± 3.3 | 1.1 | – |
| CC1=CC(=O)C2(C)CCCC(C)(CO)C23CC13 (centres unmarked) [Compound 3, alternaterpenoid A] | 24.9 ± 1.2 | – | 10.4 | – |
| COc1cc(O)c2c(=O)oc3cc(O)c(C)cc3c2c1 [Compound 13, 2-methyl-9-methoxy alternariol] | – | – | 2.0 | CC50 at 24 h [1]: 48.2 ± 2.6 µM; IC50 ([2]; Mus musculus, RAW264.7, 24 h): 24.5 ± 4.51 µM |
| Amestolkolides B | – | – | – | IC50 [7]: 1.6 ± 0.1 µM |
| COc1cc(O)c2c(c1)C1=C(O)C(=O)C[C@@]1(C)OC2=O [Compound 7, (R)-1,6-dihydroxy-8-methoxy-3a-methyl-3,3a-dihydrocyclopenta[c]isochromene-2,5-dione] | 20.6 ± 2.3 | < 10 | 4.0 | IC50 [2, 10]: 5.2 ± 1.96 µM |
